From BindingDB's records for doi:10.1021/jm9903139 (Departement D'Ingenierie Et D'Etudes Des Proteines, 2000)
Starred links: 1 amine or outer side, 2 acyl side, 3 side chain; linkers in the order of their positions; H or OH if unused. Non-standard residues stand in square brackets, D forms with d. Residues, ends and D or L forms follow the SMILES beside them. *: point of attachment. NHCH2CHPh2 = c1ccc(C(CN*)c2ccccc2)cc1; pNA = O=[N+]([O-])c1ccc(N*)cc1; NHPhenethyl = c1ccc(CCN*)cc1; Suc = O=C(CCC(=O)[*:2])[*:1]; Orn = NCCC[C@H](N)C(=O)O

Target: Peptidyl-prolyl cis-trans isomerase A (cyclophilin A, hCyp-18) (Homo sapiens) (UniProt P62937)
Sequence (P62937 whole entry, looked up): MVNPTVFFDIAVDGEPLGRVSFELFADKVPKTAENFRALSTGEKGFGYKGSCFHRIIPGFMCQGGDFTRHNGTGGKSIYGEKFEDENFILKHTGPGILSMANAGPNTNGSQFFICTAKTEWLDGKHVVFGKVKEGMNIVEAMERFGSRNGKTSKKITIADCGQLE
Test: 50% inhibitory concentration of competitive binding against hCyp-18 PPIase activity using uncoupled assay

SMILES	IC50
CC[C@H](C)[C@H](NC(=O)[C@@H]1CCCN1C(=O)CNC(=O)[C@H](C)NC(=O)[C@H](Cc1cnc[nH]1)NC(=O)[C@@H](NC(C)=O)C(C)C)C(=O)NCC(c1ccccc1)c1ccccc1 (Ac-VHAGPI-NHCH2CHPh2)	365 µM
CC[C@H](C)[C@H](NC(=O)[C@@H]1CCCN1C(=O)CNC(=O)[C@H](C)NC(=O)[C@H](CCCN)NC(=O)[C@@H](NC(C)=O)C(C)C)C(=O)N[C@@H](C)C(N)=O [1-(2-{2-[2-(2-Acetylamino-3-methyl-butyrylamino)-5-amino-pentanoylamino]-propionylamino}-acetyl)-pyrrolidine-2-carboxylic acid [1-(1-carbamoyl-ethylcarbamoyl)-2-methyl-butyl]-amide] (Ac-V[Orn]AGPIA-NH2)	> 10000 µM
C[C@H](NC(=O)CCC(=O)O)C(=O)N[C@@H](C)C(=O)N1CCC[C@H]1C(=O)N[C@@H](Cc1ccccc1)C(=O)Nc1ccc([N+](=O)[O-])cc1 [N-[1-(1-Methyl-2-{2-[1-(4-nitro-phenylcarbamoyl)-2-phenyl-ethylcarbamoyl]-pyrrolidin-1-yl}-2-oxo-ethylcarbamoyl)-ethyl]-succinamic acid] (Suc-AAPF-pNA)	850 µM

Stronger by IC50, values ahead:

IC50	SMILES
325 µM	CC[C@H](C)[C@H](NC(=O)[C@@H]1CCCN1C(=O)CNC(=O)[C@H](C)NC(=O)[C@H](Cc1cnc[nH]1)NC(=O)[C@@H](NC(C)=O)C(C)C)C(=O)NCCc1ccccc1 (Ac-VHAGPI-NHPhenethyl)
8 µM	CC[C@@H]1/C=C(\C)C[C@H](C)C[C@H](OC)[C@H]2O[C@@](O)(C(=O)C(=O)N3CCCC[C@H]3C(=O)O[C@H](/C(C)=C/[C@@H]3CC[C@@H](O)[C@H](OC)C3)[C@H](C)[C@@H](O)CC1=O)[C@H](C)C[C@@H]2OC
